Measured values taken from US20020137929A1, “1 - (3-heterocyclylphenyl) isothiourea, -isourea, -guanidine and -amidine herbicidal agents” (Intellectual Property Department, BASF Aktiengesellschaft, priority 1998, published 2002).

Experiments:
[1] = system: GLXMAW (Soybean, Williams); experiment: Postemergence herbicidal evaluation; assay type: in vivo, Glycine max, (L.) Merr. cv Williams; conditions: postemergence
In short: (§1)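 First, seedlings were raised for around two weeks. Next, test material in 50/50 acetone/water containing 0.5% TWEEN 20 was sprayed through a nozzle at 40 psi, equivalent to about 0.0156–0.500 kg/ha. Finally, after 4–5 weeks in the greenhouse, plants were rated 0–9.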

[2] = system: ECHORC (Watergrass (Calif.)); experiment: Preemergence weed control under flooded paddy conditions; assay type: in vivo, Echinochloa oryzoides; conditions: rated 3-4 weeks after treatment
In short: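 Seeds or propagules sown in top 0.5 cm of silt loam soil, flooded 1.5 to 3 cm above surface throughout. Compound in 50/50 v/v aqueous/acetone pipetted into flood water at about 0.0313 to 0.500 kg/ha. Visual 0-9 rating versus control after three to four weeks in greenhouse.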

SETVI (Foxtail, Green) = experiment: Preemergence herbicidal evaluation; assay type: in vivo, Setaria viridis; conditions: preemergence, rated 4-5 weeks after treatment, 0-9 scale
In short: (§2)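 Rating at 4–5 wk post-spray on a 0–9 visual scale vs control. Application: aqueous acetone, ~0.0156–0.500 kg/ha, to soil surface after seeding, preemergence.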

GALAP (Galium) [3] = experiment: Preemergence herbicidal evaluation; assay type: in vivo, Galium aparine; conditions: preemergence, rated 4-5 weeks after treatment, 0-9 scale
In short: as §2

[4] = system: SAGPY (Arrowhead (Pygmaea)); experiment: Preemergence weed control under flooded paddy conditions; assay type: in vivo, Sagittaria pygmaea; conditions: rated 3-4 weeks after treatment
In short: (§3)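 Seeds or propagules sown in silt loam kept flooded 1.5-3 cm; compounds in 50/50 acetone/water pipetted into flood water at about 0.0313 to 0.500 kg/ha. Greenhouse; visual 0-9 rating versus untreated control 3-4 weeks after treatment.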

GALAP (Galium) [5] = experiment: Postemergence herbicidal evaluation; assay type: in vivo, Galium aparine; conditions: postemergence
In short: as §1

[6] = system: TRZAWR (Wheat, Winter, cv Riband); experiment: Postemergence herbicidal evaluation; assay type: in vivo, Triticum aestivum; conditions: postemergence
In short: as §1

ORYSAT (Rice, Tebonnet) = experiment: Preemergence herbicidal evaluation; assay type: in vivo, Oryza sativa, (L.) Tebonnet; conditions: preemergence, rated 4-5 weeks after treatment, 0-9 scale
In short: as §2

AMBEL (Ragweed, Common) = experiment: Postemergence herbicidal evaluation; assay type: in vivo, Ambrosia artemisifolia; conditions: postemergence
In short: as §1

CYPSE (Flatsedge) = experiment: Preemergence weed control under flooded paddy conditions; assay type: in vivo, Cyperus serotinus; conditions: rated 3-4 weeks after treatment
In short: as §3

MOOVA (Monochoria) = experiment: as above; assay type: in vivo, Monochoria vaginalis; conditions: rated 3-4 weeks after treatment
In short: as §3

[7] = system: ECHORC (Watergrass (Calif.)); experiment: Postemergence weed control under flooded paddy conditions; assay type: in vivo, Echinochloa oryzoides; conditions: postemergence weeds, rated 3 to 4 weeks after treatment
In short: (§4)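 Weeds 3 to 5 cm tall and rice seedlings at the 1.5 to 2.5 leaf stage were flooded, with water held 1.5 to 3 cm above the soil. Compounds in 50/50 v/v aqueous/acetone went into the flood water at about 0.0313 to 0.500 kg/ha. Visual 0-9 ratings versus control were made 3 to 4 weeks later.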

CASOB (Sicklepod) = experiment: Postemergence herbicidal evaluation; assay type: in vivo, Cassia obtusifolia; conditions: postemergence
In short: as §1

[8] = system: SAGPY (Arrowhead (Pygmaea)); experiment: Postemergence weed control under flooded paddy conditions; assay type: in vivo, Sagittaria pygmaea; conditions: postemergence weeds, rated 3 to 4 weeks after treatment
In short: as §4

SMILES: C#CCOC(=O)CC1SC(=Nc2cc(-n3c(=O)cc(C(F)(F)F)n(C)c3=O)c(F)cc2Cl)N(C)C1=O (stereo not drawn) [Compound 90, 2-Propynyl 2-{{2-chloro-5-[3,6-dihydro-3-methyl-2,6-dioxo-4-(trifluoromethyl)-1(2H)-pyrimidinyl]-4-fluorophenyl}imino}-3-methyl-4-oxo-5-thiazolidineacetate]
- GLXMAW herbicidal rating ([1]; rate 0.0158 kg/ha): 9.0
- GLXMAW herbicidal rating ([1]; rate 0.0315 kg/ha): 9.0
- GLXMAW herbicidal rating ([1]; rate 0.0630 kg/ha): 9.0
- ECHORC herbicidal effect rating ([2]; 0.0313 kg/ha): 0.0
- ECHORC herbicidal effect rating ([2]; 0.0625 kg/ha): 0.0
- ECHORC herbicidal effect rating ([2]; 0.1250 kg/ha): 0.0
- ECHORC herbicidal effect rating ([2]; 0.2500 kg/ha): 3.0
- SETVI rating (SETVI (Foxtail, Green); 0.0313 kg/ha): 0.0
- SETVI rating (SETVI (Foxtail, Green); 0.0625 kg/ha): 3.0
- SETVI rating (SETVI (Foxtail, Green); 0.1250 kg/ha): 9.0
- SETVI rating (SETVI (Foxtail, Green); 0.2500 kg/ha): 9.0
- GALAP rating (GALAP (Galium) [3]; 0.0313 kg/ha): 0.0
- GALAP rating (GALAP (Galium) [3]; 0.0625 kg/ha): 0.0
- GALAP rating (GALAP (Galium) [3]; 0.1250 kg/ha): 3.0
- GALAP rating (GALAP (Galium) [3]; 0.2500 kg/ha): 7.0
- SAGPY herbicidal effect rating ([4]; 0.0313 kg/ha): 4.0
- SAGPY herbicidal effect rating ([4]; 0.0625 kg/ha): 6.0
- SAGPY herbicidal effect rating ([4]; 0.1250 kg/ha): 9.0
- SAGPY herbicidal effect rating ([4]; 0.2500 kg/ha): 9.0
- GALAP herbicidal rating (GALAP (Galium) [5]; rate 0.0158 kg/ha): 5.0
- GALAP herbicidal rating (GALAP (Galium) [5]; rate 0.0315 kg/ha): 7.0
- GALAP herbicidal rating (GALAP (Galium) [5]; rate 0.0630 kg/ha): 7.0
- TRZAWR herbicidal rating ([6]; rate 0.0158 kg/ha): 5.5
- TRZAWR herbicidal rating ([6]; rate 0.0315 kg/ha): 7.0
- TRZAWR herbicidal rating ([6]; rate 0.0630 kg/ha): 7.5
- ORYSAT rating (ORYSAT (Rice, Tebonnet); 0.0313 kg/ha): 0.0
- ORYSAT rating (ORYSAT (Rice, Tebonnet); 0.0625 kg/ha): 0.0
- ORYSAT rating (ORYSAT (Rice, Tebonnet); 0.1250 kg/ha): 2.0
- ORYSAT rating (ORYSAT (Rice, Tebonnet); 0.2500 kg/ha): 9.0
- AMBEL herbicidal rating (AMBEL (Ragweed, Common); rate 0.0158 kg/ha): 9.0
- AMBEL herbicidal rating (AMBEL (Ragweed, Common); rate 0.0315 kg/ha): 9.0
- AMBEL herbicidal rating (AMBEL (Ragweed, Common); rate 0.0630 kg/ha): 9.0
- CYPSE herbicidal effect rating (CYPSE (Flatsedge); 0.0313 kg/ha): 0.0
- CYPSE herbicidal effect rating (CYPSE (Flatsedge); 0.0625 kg/ha): 0.0
- CYPSE herbicidal effect rating (CYPSE (Flatsedge); 0.1250 kg/ha): 0.0
- CYPSE herbicidal effect rating (CYPSE (Flatsedge); 0.2500 kg/ha): 3.0
- MOOVA herbicidal effect rating (MOOVA (Monochoria); 0.0313 kg/ha): 9.0
- MOOVA herbicidal effect rating (MOOVA (Monochoria); 0.0625 kg/ha): 9.0
- MOOVA herbicidal effect rating (MOOVA (Monochoria); 0.1250 kg/ha): 9.0
- MOOVA herbicidal effect rating (MOOVA (Monochoria); 0.2500 kg/ha): 9.0
- Herbicidal rating ECHORC ([7]; Rate 0.0313 kg/ha): 0.0
- Herbicidal rating ECHORC ([7]; Rate 0.0625 kg/ha): 0.0
- Herbicidal rating ECHORC ([7]; Rate 0.1250 kg/ha): 0.0
- Herbicidal rating ECHORC ([7]; Rate 0.2500 kg/ha): 3.0
- CASOB herbicidal rating (CASOB (Sicklepod); rate 0.0158 kg/ha): 2.0
- CASOB herbicidal rating (CASOB (Sicklepod); rate 0.0315 kg/ha): 3.0
- CASOB herbicidal rating (CASOB (Sicklepod); rate 0.0630 kg/ha): 4.0
- Herbicidal rating SAGPY ([8]; Rate 0.0313 kg/ha): 4.0
- Herbicidal rating SAGPY ([8]; Rate 0.0625 kg/ha): 6.0
- Herbicidal rating SAGPY ([8]; Rate 0.1250 kg/ha): 9.0
- Herbicidal rating SAGPY ([8]; Rate 0.2500 kg/ha): 9.0
